Test results as given in PMC10247784, “Physiological activation of human and mouse bitter taste receptors by bile acids” (Communications Biology, 2023).

Target: T1, mouse Tas2r144 (Mus musculus, UniProt Q7TQB8)
T1 construct: expressed in transfected cells; host or cells: HEK293T-Gα16gust44
Assay: Calcium imaging assay (FLIPR), HEK293T-Gα16gust44 cells transfected with mouse Tas2r144
Assay type: cell-based
Conditions: for Δ F/F: Tas2r144
Method: This set of bile acids was chosen because of their commercial availability in high purities, their diversity within the class of bile acids and their previous detection and quantitation in human blood. Stock solutions were prepared in DMSO.
As basal growth medium for the HEK293T-Gα16gust44 cell line[17],[59] served Dulbecco’s modified eagle medium (DMEM) (Thermo Fisher Scientific, Darmstadt, Germany) supplemented with 10 % fetal bovine serum (Sigma-Aldrich, Steinheim, Germany), 2 mM L-glutamine (Sigma-Aldrich, Steinheim, Germany), 100 units/ml penicillin (Sigma Aldrich, Steinheim, Germany) and 100 µg/ml streptomycin (Sigma Aldrich, Steinheim, Germany). Growth conditions were 37 °C, 5 % CO2 and saturated air-humidity[60].
HEK293T-Gα16gust44 cells were seeded on poly-D-lysine (10 µg/ml) coated 96-well plates to reach a confluence of 40-60 % the next day. For transient transfection 150 ng of plasmid DNA containing the receptor of interest and 0.3 µl lipofectamine 2000 (Thermo Fisher Scientific, Darmstadt, Germany) per well were used and transfection took place according to the manual of lipofectamine 2000. […] The empty vector DNA (mock) was transfected as negative control[14],[41].
Cells were loaded using the calcium-sensitive fluorescent dye Fluo-4-AM (Abcam, Cambridge, Great Britain) in the presence of 2.5 mM probenecid (Sigma-Aldrich, Steinheim, Germany) the day after transfection[13],[41]. 1 h after loading, cells were washed with C1 buffer using a BioTek Cell Washer, incubated in the dark for half an hour and washed again. For automated agonist application and measurement of fluorescence changes, a FLIPR^TETRA device (Molecular Devices, San José, United States) was used. Viability of cells was tested by application of 100 nM Somatostatin 14 (Bachem, Bubendorf, Switzerland)[42].
Measured data were negative control corrected by subtracting the signal of the mock-transfected cells and exported to Microsoft Excel using the FLIPR software ScreenWorks 4.2. In Microsoft Excel software, standardization of maximum fluorescence intensities to the basal fluorescence and normalization to the buffer-only control was done to calculate the relative fluorescence changes (ΔF/F).
Initial screening experiments performed in duplicate wells were confirmed by at least one replication and representative traces were selected for display. All dose-response relationships were determined by three independent experiments (biological replicates) performed in duplicates (technical replicates). Threshold concentrations, defined as lowest substance concentrations leading to statistically significant elevated fluorescence changes in receptor-transfected cells compared with empty vector-transfected cells, were determined using SigmaPlot with Student’s t-test to evaluate statistical significance (p < 0.01).

T1 sequence (Q7TQB8 whole entry): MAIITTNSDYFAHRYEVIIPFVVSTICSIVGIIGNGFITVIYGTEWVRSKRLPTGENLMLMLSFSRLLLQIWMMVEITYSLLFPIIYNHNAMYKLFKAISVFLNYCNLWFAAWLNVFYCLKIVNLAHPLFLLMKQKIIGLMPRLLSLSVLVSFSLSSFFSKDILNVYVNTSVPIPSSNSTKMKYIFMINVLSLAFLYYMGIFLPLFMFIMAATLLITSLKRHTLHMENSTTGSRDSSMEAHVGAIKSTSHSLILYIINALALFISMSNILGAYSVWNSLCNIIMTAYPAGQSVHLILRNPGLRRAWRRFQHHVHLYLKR

SMILES: C[C@H](CCC(=O)NCC(=O)O)[C@H]1CC[C@H]2[C@@H]3[C@H](O)C[C@@H]4C[C@H](O)CC[C@]4(C)[C@H]3C[C@H](O)[C@]12C [Glycocholic Acid, glycocholic acid]
- Δ F/F (conc. 0,01 mM): 0.007151
- Δ F/F (conc. 0,1 mM): 0.04043
- Δ F/F (conc. 0,03 mM): 0.015
- Δ F/F (conc. 0,3 mM): 0.08047
- Δ F/F (conc. 0,003 mM): 0.00267
- RLU (Time 0 s): 0 RLU
- RLU (Time 2 s): -31.2125 RLU
- RLU (Time 4 s): -43.6447 RLU
- RLU (Time 6 s): -0.4257 RLU
- RLU (Time 8 s): -5.711 RLU
- RLU (Time 12 s): -13.8091 RLU
- RLU (Time 14 s): -0.4257 RLU
- RLU (Time 16 s): -0.5597 RLU
- RLU (Time 18 s): 10.0299 RLU
- RLU (Time 18.781 s): -3.913 RLU
- RLU (Time 20.781 s): -28.6004 RLU
- RLU (Time 22.781 s): -59.2077 RLU
- RLU (Time 24.781 s): -17.5148 RLU
- RLU (Time 26.781 s): 37.2224 RLU
- RLU (Time 28.781 s): 99.9904 RLU
- RLU (Time 30.781 s): 135.498 RLU
- RLU (Time 32.781 s): 202.624 RLU
- RLU (Time 34.781 s): 240.201 RLU
- RLU (Time 36.781 s): 276.718 RLU
- RLU (Time 38.781 s): 320.611 RLU
- RLU (Time 40.781 s): 324.075 RLU
- RLU (Time 42.781 s): 335.112 RLU
- RLU (Time 44.781 s): 371.949 RLU
- RLU (Time 46.781 s): 375.35 RLU
- RLU (Time 48.781 s): 395.668 RLU
- RLU (Time 50.781 s): 393.283 RLU
- RLU (Time 52.781 s): 432.603 RLU
- RLU (Time 54.781 s): 444.104 RLU
- RLU (Time 56.781 s): 419.562 RLU
- RLU (Time 58.781 s): 425.176 RLU
- RLU (Time 60.781 s): 431.497 RLU
- RLU (Time 62.781 s): 417.317 RLU
- RLU (Time 64.781 s): 465.061 RLU
- RLU (Time 66.781 s): 447.834 RLU
- RLU (Time 68.781 s): 427.827 RLU
- RLU (Time 70.781 s): 415.079 RLU
- RLU (Time 72.781 s): 432.914 RLU
- RLU (Time 74.781 s): 450.52 RLU
- RLU (Time 76.781 s): 421.617 RLU
- RLU (Time 78.781 s): 441.46 RLU
- RLU (Time 80.781 s): 426.566 RLU
- RLU (Time 82.781 s): 423.408 RLU
- RLU (Time 84.781 s): 393.748 RLU
- RLU (Time 86.781 s): 429.403 RLU
- RLU (Time 88.781 s): 405.471 RLU
- RLU (Time 90.781 s): 401.169 RLU
- RLU (Time 92.781 s): 422.993 RLU
- RLU (Time 94.781 s): 401.134 RLU
- RLU (Time 96.781 s): 381.14 RLU
- RLU (Time 98.781 s): 357.346 RLU
- RLU (Time 100.781 s): 380.46 RLU
- RLU (Time 102.781 s): 368.041 RLU
- RLU (Time 104.781 s): 369.437 RLU
- RLU (Time 106.781 s): 355.75 RLU
- RLU (Time 108.781 s): 354.221 RLU
- RLU (Time 110.781 s): 346.013 RLU
- RLU (Time 112.781 s): 352.628 RLU
- RLU (Time 114.781 s): 328.654 RLU
- RLU (Time 116.781 s): 301.02 RLU
- RLU (Time 118.781 s): 305.388 RLU
- RLU (Time 120.781 s): 301.126 RLU
- RLU (Time 122.781 s): 277.354 RLU
- RLU (Time 124.781 s): 278.403 RLU
- RLU (Time 126.781 s): 268.257 RLU
- RLU (Time 128.781 s): 264.093 RLU
- RLU (Time 130.781 s): 273.404 RLU
- RLU (Time 132.781 s): 241.449 RLU
- RLU (Time 134.781 s): 241.405 RLU
- RLU (Time 136.781 s): 246.641 RLU
- RLU (Time 137.562 s): 213.654 RLU
- RLU (Time 143.562 s): 221.818 RLU
- RLU (Time 149.562 s): 207.299 RLU
- RLU (Time 155.562 s): 180.281 RLU
- RLU (Time 161.562 s): 165.822 RLU
- RLU (Time 167.562 s): 177.105 RLU
- RLU (Time 173.562 s): 151.305 RLU
- RLU (Time 179.562 s): 140.777 RLU
- RLU (Time 185.562 s): 121.278 RLU
- RLU (Time 191.562 s): 122.229 RLU
- RLU (Time 197.562 s): 118.034 RLU
- RLU (Time 203.562 s): 110.818 RLU
- RLU (Time 209.562 s): 87.4457 RLU
- RLU (Time 215.562 s): 107.926 RLU
- RLU (Time 221.562 s): 45.9427 RLU
- RLU (Time 227.562 s): 30.7626 RLU
- RLU (Time 233.562 s): 60.9884 RLU
- RLU (Time 239.562 s): 58.9568 RLU
- RLU (Time 245.562 s): 54.3153 RLU
- RLU (Time 293.562 s): 51.7559 RLU
- RLU (Time 299.562 s): 74.5788 RLU
- RLU (Time 305.562 s): 55.2043 RLU
- RLU (Time 311.562 s): 49.25 RLU
- RLU (Time 317.562 s): 60.65 RLU
- RLU (Time 323.562 s): 55.6278 RLU
- RLU (Time 329.562 s): 55.0836 RLU
- RLU (Time 335.562 s): 69.3242 RLU
- RLU (Time 341.562 s): 66.607 RLU
- RLU (Time 347.562 s): 79.0246 RLU
- RLU (Time 353.562 s): 84.7807 RLU
- RLU (Time 359.562 s): 64.803 RLU
- Activation threshold concentration Tas2r144 (p < 0.01 vs empty vector): 100 µM
